In patent publication US20240083910A1, “AMIDO-SUBSTITUTED PYRIDYL COMPOUNDS AND METHODS OF USE THEREOF FOR THE TREATMENT OF HERPESVIRUSES” (Merck Sharp & Dohme LLC, priority 2020, published 2024):
Like-named read-outs stand apart in the source and are kept apart here.

Columns and labels:
[1] = target: T1, Human cytomegalovirus DNA polymerase (Human cytomegalovirus, UniProt P08546); assay: CMV polymerase assay (AlphaLISA); assay type: biochemical; settings: HCMV polymerase 0.2 nM; 30 min pre-incubation; 60 min at 37° C.; read-out: CMV (IC50)
T1 construct: made in house; host or cells: SF21 insect cells (baculovirus vector)
Procedure: Human cytomegalovirus and varicella zoster virus DNA polymerases were expressed via baculovirus vector in SF21 cells and purified. Heterodimeric nucleic acid substrate used in the herpesvirus polymerase reactions was generated by annealing a 59-mer template to a 17-mer digoxigenin-labeled primer. Polymerase (HCMV final concentration of 0.2 nM; VZV final concentration of 0.4 nM) was combined with an inhibitor compound or DMSO in assay buffer (10 mM HEPES, pH 7.5, 25 mM KCl, 25 mM NaCl, 5 mM MgCl2, 5% glycerol, 0.67 mg/ml bovine serum albumin, and 1 mM tris(2-carboxyethyl)phosphine), and this mixture was pre-incubated for 30 minutes at room temperature in 384-well microtiter plates. The polymerization reaction was initiated by the addition of template/primer substrate (final concentration: 1.6 nM), and dNTPs (final concentration: 24 nM dCTP, 24 nMdGTP, 16 nM dATP, 16 nM dTTP, and 0.8 nM biotin-dUTP). After 60 min incubation at 37° C., reactions were terminated with quench buffer (25 mM HEPES pH 7.5, 100 mM NaCl, 0.25% Tween-20, 12 mM EDTA, and 1 mg/ml bovine serum albumin). Incorporation of biotinylated UTP was detected with 2.5-5 ug/ml anti-DIG AlphaLISA acceptor beads and 5-10 ug/ml streptavidin AlphaLISA donor beads (PerkinElmer). Compound effects were normalized to the window defined by the controls (DMSO only and pre-quenched wells) and were fit using a 4-parameter algorithm to report an IC50.

[2] = system: HCMV Strain AD169; assay: Viral qPCR assay, HCMV; assay type: cell-based, Human cytomegalovirus; settings: MRC-5 cells, 0.05-0.1 pfu/cell, growth media or 50% fetal bovine serum, viral genome copies by qPCR, read-out: CMV Cell (EC50)
Procedure: (§1) MRC5 cells, Vero cells, and MeWo cells were obtained from ATCC, and were maintained at 37° C./5% CO2/90% relative humidity in Minimal Essential Medium with 10% fetal bovine serum, […] L-glutamine, 100 units/ml penicillin and 100 ug/ml streptomycin. Assay plates were prepared by dispensing compounds dissolved in DMSO into wells of 384 well collagen-coated plates using an ECHO acoustic dispenser. Each compound was tested in a 10-point, serial 3-fold dilution. Controls included uninfected cells and infected cells treated only with DMSO. Assays were initiated by mixing selected cells, in suspension, with virus, and dispensing 50 μl/well infected cells to pre-plated compounds. Plates were incubated at 37° C./5% CO2/90% relative humidity for ˜72 hrs to permit genomic replication, and infected cells were lysed by the addition of an equal volume of lysis buffer (10 mM Tris-HCl, pH8, 50 mM KCl, 2 mM MgCl2, 0.45% NP-40, 0.45% Tween-20, and 100 μg/ml proteinase K). An aliquot of the lysate was transferred to a 384-well PCR plate and incubated at 56° C. for 1 hour and then at 95° C. for 10 min. Levels of a viral gene and of the cellular control, PPIA (Thermo Fisher Assay ID=Hs04194521_s1), were measured in separate 10 ul qPCR assays using TaqMan® Gene Expression Master Mix (Applied Biosystems), and an 7900HT Fast Real-Time PCR System with 384-Well Block Module. 7-point, serial 10-fold dilutions of a plasmid standard were run on each plate to generate a standard curve, and genome copies numbers were calculated by plotting experimental Ct onto linear regression of the standard curve. Viral genome copy numbers were normalized by cellular control copy number, and compound effects were normalized to the window defined by the controls. Calculated % effects were fit using a 4-parameter algorithm, and EC50 was reported.
(§2) MRC5 cells, Vero cells, and MeWo cells were obtained from ATCC, and were maintained at 37° C./5% CO2/90% relative humidity in Minimal Essential Medium with 10% fetal bovine serum, […] L-glutamine, 100 units/ml penicillin and 100 ug/ml streptomycin. Assay plates were prepared by dispensing compounds dissolved in DMSO into wells of 384 well collagen-coated plates using an ECHO acoustic dispenser. Each compound was tested in a 10-point, serial 3-fold dilution. Controls included uninfected cells and infected cells treated only with DMSO. Assays were initiated by mixing selected cells, in suspension, with virus, and dispensing 50 μl/well infected cells to pre-plated compounds. Plates were incubated at 37° C./5% CO2/90% relative humidity for ˜72 hrs to permit genomic replication, and infected cells were lysed by the addition of an equal volume of lysis buffer (10 mM Tris-HCl, pH 8, 50 mM KCl, 2 mM MgC12, 0.45% NP-40, 0.45% Tween-20, and 100 μg/ml proteinase K). An aliquot of the lysate was transferred to a 384-well PCR plate and incubated at 56° C. for 1 hour and then at 95° C. for 10 min. Levels of a viral gene were measured in 10 ul qPCR assays using TaqMan® Gene Expression Master Mix (Applied Biosystems), and an 7900HT Fast Real-Time PCR System with 384-Well Block Module. 7-point, serial 10-fold dilutions of a plasmid standard were run on each plate to generate a standard curve, and genome copies numbers were calculated by plotting experimental Ct onto linear regression of the standard curve. Compound effects on viral genome copy number were normalized to the window defined by the controls. Calculated % effects were fit using a 4-parameter algorithm, and ECso was reported.
HCMV: Strain AD169 Street was assayed in MRC-5 cells and was used at 0.05-0.1 pfu/cell. The assays were performed in either growth media or in the same media with 50% fetal bovine serum. Primer-probe set was Thermo Fisher Assay ID=AIFATFK.

[3] = system: VZV; assay: Viral qPCR assay, VZV; assay type: cell-based, varicella zoster virus; settings: MeWo or MRC5 cells, 0.04-0.1 pfu/cell, growth medium, viral genome copies by qPCR
Procedure: as §1, §2
VZV: Strain Street was maintained as an infected cell stock in MRC-5 cells. It was assayed in MeWo or MRC5 cells and was used at 0.04-0.1 pfu/cell. The assays were performed in growth medium. Primer-probe set was Thermo Fisher Assay ID=AIPAEXQ.

[4] = system: HSV-1 Strain F; assay: Viral qPCR assay, HSV-1; assay type: cell-based, Herpes Simplex Virus type 1; settings: Vero or MRC5 cells, 0.0005-0.004 pfu/cell, growth medium, viral genome copies by qPCR, read-out: HSV1 Cell (EC50)
Procedure: as §1, §2
HSV-1: Strain F […] was assayed in Vero or MRC5 cells and was used at 0.0005-0.004 pfu/cell in growth medium. Primer-probe set was Thermo Fisher Assay ID=AIBJZIB

[5] = Human betaherpesvirus 5, AD169, MRC5, 72 h

T1 sequence (P08546 whole entry): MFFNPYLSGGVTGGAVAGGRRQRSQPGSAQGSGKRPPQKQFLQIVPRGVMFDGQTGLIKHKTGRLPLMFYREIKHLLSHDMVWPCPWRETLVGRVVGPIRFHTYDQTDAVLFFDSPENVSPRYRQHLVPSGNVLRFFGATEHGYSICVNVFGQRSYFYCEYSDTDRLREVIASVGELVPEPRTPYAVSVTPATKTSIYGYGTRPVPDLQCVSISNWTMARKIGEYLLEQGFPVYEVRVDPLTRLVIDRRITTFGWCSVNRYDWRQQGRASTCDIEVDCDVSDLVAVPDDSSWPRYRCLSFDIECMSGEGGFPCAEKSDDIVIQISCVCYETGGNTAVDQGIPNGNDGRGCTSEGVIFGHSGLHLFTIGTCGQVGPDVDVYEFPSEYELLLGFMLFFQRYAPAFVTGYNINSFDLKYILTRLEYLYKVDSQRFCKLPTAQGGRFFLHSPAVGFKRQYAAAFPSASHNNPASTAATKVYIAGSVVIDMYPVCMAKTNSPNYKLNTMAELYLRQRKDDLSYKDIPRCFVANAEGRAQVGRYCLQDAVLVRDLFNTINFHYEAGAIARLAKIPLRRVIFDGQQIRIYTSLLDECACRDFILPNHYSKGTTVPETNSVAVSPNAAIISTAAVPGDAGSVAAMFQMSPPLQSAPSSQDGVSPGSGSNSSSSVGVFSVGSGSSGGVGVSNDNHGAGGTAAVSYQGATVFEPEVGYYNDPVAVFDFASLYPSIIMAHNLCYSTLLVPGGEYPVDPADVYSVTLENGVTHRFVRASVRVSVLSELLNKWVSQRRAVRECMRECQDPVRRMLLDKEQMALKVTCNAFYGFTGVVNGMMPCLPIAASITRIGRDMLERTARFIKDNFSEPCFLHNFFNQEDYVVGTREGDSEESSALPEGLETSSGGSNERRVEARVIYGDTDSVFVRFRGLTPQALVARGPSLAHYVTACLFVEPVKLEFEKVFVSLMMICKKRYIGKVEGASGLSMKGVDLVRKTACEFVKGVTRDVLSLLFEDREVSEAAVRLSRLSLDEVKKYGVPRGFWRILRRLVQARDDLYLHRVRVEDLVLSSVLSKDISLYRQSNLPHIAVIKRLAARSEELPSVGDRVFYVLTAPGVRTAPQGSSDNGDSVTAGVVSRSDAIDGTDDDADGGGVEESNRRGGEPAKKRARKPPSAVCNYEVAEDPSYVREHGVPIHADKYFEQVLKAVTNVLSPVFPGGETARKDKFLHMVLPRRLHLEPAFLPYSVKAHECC

Row | Structure (SMILES) | IC50 [1] | EC50 [2, 5] | EC50 ([3]; Human alphaherpesvirus 3, 72 h) | EC50 ([4]; Human alphaherpesvirus 1, 72 h) | EC50 ([2]; ~72 hrs) | EC50 ([3]; ~72 hrs) | EC50 ([4]; ~72 hrs)
1 | COc1nc(C2CC3(CC(O)C3)C2)c(O[C@H]2CCN3C(=O)OC[C@@H]3C2)cc1C(=O)NCc1ccc(Cl)cc1 (stereo partly shown) [Compound 76] | 32.1 nM | 519 nM | 778 nM | 293 nM |  |  | 
2 | COc1nc(-c2cnn(C(F)F)c2)c(O[C@H]2CCN3C(=O)OC[C@@H]3C2)cc1C(=O)NCc1cc(F)c(Cl)c(F)c1 [Compound 57] | 6.13 nM | 538 nM | 364 nM | 207 nM |  |  | 
3 | COc1nc(-c2ccn(C)c2)c(O[C@H]2CCN3C(=O)OC[C@@H]3C2)cc1C(=O)NCc1ccc(Cl)cc1 [Compound 30] | 14.5 nM | 462 nM | 187 nM | 202 nM |  |  | 
4 | COCCn1cc(-c2nc(OC)c(C(=O)NCc3ccc(Cl)cc3)cc2O[C@H]2CCN3C(=O)OC[C@@H]3C2)cn1 [Compound 25] | 6.77 nM | 159 nM | 186 nM | 146 nM |  |  | 
5 | O=C1CC[C@@H](COc2nc(-c3cnn(C(F)F)c3)c(O[C@H]3CCN4C(=O)OC[C@@H]4C3)cc2C(=O)NCc2ccc(Cl)cc2)N1 [Compound 99] | 4.67 nM | 282 nM | 1310 nM | 493 nM |  |  | 
6 | COc1nc(CC(C)(C)N)c(O[C@H]2CCN3C(=O)OC[C@@H]3C2)cc1C(=O)NCc1ccc(Cl)cc1 [Compound 81] | 88.6 nM | 558 nM | 3650 nM | 2880 nM |  |  | 
7 | COc1nc(CC(C)(C)O)c(O[C@H]2CCN3C(=O)OC[C@@H]3C2)cc1C(=O)NCc1ccc(Cl)cc1 [Compound 73] | 20.9 nM | 339 nM | 828 nM | 575 nM |  |  | 
8 | COc1nc(-c2cc3ccccc3[nH]2)c(O[C@H]2CCN3C(=O)OC[C@@H]3C2)cc1C(=O)NCc1ccc(Cl)cc1 [Compound 26] | 5.8 nM | 372 nM | 208 nM | 174 nM |  |  | 
9 | COc1nc(-c2ccoc2)c(O[C@H]2CCN3C(=O)OC[C@@H]3C2)cc1C(=O)NCc1ccc(Cl)cc1 [Compound 17] | 10.7 nM | 317 nM | 244 nM | 186 nM |  |  | 
10 | COc1nc(C2CC2O)c(O[C@H]2CCN3C(=O)OC[C@@H]3C2)cc1C(=O)NCc1ccc(Cl)cc1 (single isomer, unassigned) [Compound 79] | 28.7 nM |  |  |  | 337 nM | 463 nM | 518 nM
11 | COc1nc(C2CC2O)c(O[C@H]2CCN3C(=O)OC[C@@H]3C2)cc1C(=O)NCc1ccc(Cl)cc1 (single isomer, unassigned) [Compound 78] | 49 nM |  |  | 644 nM | 616 nM | 1850 nM | 

The remaining compounds from weak to strong by IC50 [1], led by results:

Row | IC50 [1] | Structure (SMILES) | EC50 [2, 5] | EC50 ([3]; Human alphaherpesvirus 3, 72 h) | EC50 ([4]; Human alphaherpesvirus 1, 72 h) | EC50 ([2]; ~72 hrs) | EC50 ([3]; ~72 hrs) | EC50 ([4]; ~72 hrs)
12 | 42.6 nM | CCOc1nc(-c2cnn(C(F)F)c2)c(O[C@H]2CCN3C(=O)OC[C@@H]3C2)cc1C(=O)NCc1ccc(Cl)cc1 [Compound 101] | 524 nM | 578 nM | 320 nM |  |  | 
13 | 28.7 nM | COc1nc(N2CCC(C(C)(C)O)C2)c(O[C@H]2CCN3C(=O)OC[C@@H]3C2)cc1C(=O)NCc1ccc(Cl)cc1 (stereo partly shown) [Compound 68] |  |  |  | 265 nM | 661 nM | 654 nM
14 | 25.3 nM | COc1nc(-c2cc3ccccc3o2)c(O[C@H]2CCN3C(=O)OC[C@@H]3C2)cc1C(=O)NCc1ccc(Cl)cc1 [Compound 20] | 587 nM | 1870 nM | 1440 nM |  |  | 
15 | 20.3 nM | COc1nc(-c2cnn(C(C)(C)C)c2)c(O[C@H]2CCN3C(=O)OC[C@@H]3C2)cc1C(=O)NCc1ccc(Cl)cc1 [Compound 11] | 653 nM | 1270 nM | 456 nM |  |  | 
16 | 17 nM | COc1nc(-c2cnc3[nH]ccc3c2)c(O[C@H]2CCN3C(=O)OC[C@@H]3C2)cc1C(=O)NCc1ccc(Cl)cc1 [Compound 41] | 606 nM | 418 nM | 494 nM |  |  | 
17 | 14.1 nM | CN1CCN(CCCOc2nc(-c3cnn(C(F)F)c3)c(O[C@H]3CCN4C(=O)OC[C@@H]4C3)cc2C(=O)NCc2ccc(Cl)cc2)CC1 [Compound 98] | 115 nM | 617 nM | 290 nM |  |  | 
18 | 11 nM | COc1ccc(-c2nc(OC)c(C(=O)NCc3ccc(Cl)cc3)cc2O[C@H]2CCN3C(=O)OC[C@@H]3C2)s1 [Compound 33] | 901 nM | 679 nM | 144 nM |  |  | 
19 | 5.23 nM | COc1nc(N2CC3(CC(O)C3)C2)c(O[C@H]2CCN3C(=O)OC[C@@H]3C2)cc1C(=O)NCc1ccc(Cl)cc1 [Compound 66] | 146 nM | 648 nM | 262 nM |  |  | 
20 | 3.38 nM | COc1nc(-c2ccc(N)nc2)c(O[C@H]2CCN3C(=O)OC[C@@H]3C2)cc1C(=O)NCc1ccc(Cl)cc1 [Compound 36] | 175 nM | 92.3 nM | 82 nM |  |  | 
21 | 3.25 nM | COc1nc(-c2cnn(C(F)F)c2)c(O[C@H]2CCN3C(=O)OC[C@@H]3C2)cc1C(=O)NCc1ccc(C#N)cc1F [Compound 59] | 324 nM | 160 nM | 80.6 nM |  |  | 
22 | 3.17 nM | NC(=O)CCOc1nc(-c2cnn(C(F)F)c2)c(O[C@H]2CCN3C(=O)OC[C@@H]3C2)cc1C(=O)NCc1ccc(Cl)cc1 [Compound 100] | 47.4 nM | 451 nM | 213 nM |  |  | 
